Experimental data reported in patent US6624188B1, “Method of treatment with compounds having retinoid-like activity and reduced skin toxicity and lacking teratogenic effects” (Allergan, Inc., priority 1992, dated 2003).
Converted amounts (≈) assume the structure as drawn. Like-named read-outs stand apart in the source and are kept apart here.

Assays:
[1] = system: limb bud mesenchymal cells; assay: inhibition of chondrogenesis in high-density spot cultures of limb bud mesenchymal cells; type: cell-based; conditions: Mus musculus; limb bud mesenchymal cell spot cultures, terminated 96 hours after plating; read-out: IC50 (concentration which inhibited chondrogenesis by 50%)
Source text: In an in vitro bioassay which measures inhibition of chondrogenesis (bone formation) in […] as a classic measure of teratogenecity the results shown in Table 2 were obtained. The assay is described as follows:
High-density “spot” cultures of limb bud mesenchymal cells were used to compare the ability of various concentrations of test drugs to suppress chondrogenic differentiation as a bioassay. Forelimb buds of mouse embryos on day 12 of gestation (54±2 somites) were dissociated in a trypsin-EDTA solution, and the resultant single-cell suspension was plated as 20-μl spots (200,000 cells/spot) on plastic culture dishes. Retinoid concentrations ranging from 0.3 ng/ml to 3 μg/ml (1 nM-10 μM) were added to the culture medium (Eagle's MEM+10% fetal bovine serum, GIBCO) 24 hours after initial plating. […]
The cultures were terminated 96 hours after plating, at which time the medium was removed and the cells were fixed for 1 hour in 10% formalin containing 0.5% cetylpyridinium chloride. The cultures were rinsed in acetic acid and stained for 1 hour in 0.5% Alcian blue solution at pH 1.0, differentiated in 3% acetic acid, and then dehydrated in ethanol and scored for chondrogenesis under the microscope. […] The number of cartilage nodules stained in the whole spot, mean number of nodules, and standard deviations were calculated for four replicate cultures per treatment. […]

human sebocyte cultures = assay: human sebocyte culture 3H-thymidine incorporation (DNA synthesis, anti-proliferative effect); type: cell-based; conditions: human sebocytes, 8 days treatment, FIG. 2
Source text: The retinoid like activity of the compounds used in accordance with the method of treatment of the present invention and of the novel compounds of the invention can be confirmed by several assay procedures. An assay involving human sebocyte cultures measures the inhibition of ^3H-thymidine into cells, and thus measures inhibition of DNA synthesis and thus an anti-proliferative effect on sebocyte (i.e. a sebostatic effect). This assay is also considered a specific assay for effectiveness of a compound as a potential anti-acne drug. The test is conducted as follows.
Face-lift or forehead reduction skins from cosmetic surgeries were used as sources of human sebaceous gland cells (sebocytes).
Isolated sebocytes were plated in type 1 collagen coated-dishes in DMEM/F12 (1:1) medium supplemented with 8% fetal bovine serum, 2% human serum, 10 ng/ml epidermal growth factor, 1 nM cholera toxin, 1 μM hydrocortisone, and penicillin/streptomycin/amphotericin B. Secondary cultures were prepared by plating Dispase dissociated cells in collagen coated 24-well plates.
Sub-confluent secondary cultures were treated with the test compounds or ethanol vehicle every 2-3 days for 8 days in the above medium from which the total serum concentration was reduced to 2% and hydrocortisone was not included. During the last 6 hours of treatment, the cultures were labeled with 2 μCi/ml ^3H-thymidine. DNA from the cells were extracted by thichoroacetic acid and perchloric acid, and assayed for radioactivity by scintillation counting and for content of DNA by the diphenylamine calorimetric method. The results were expressed as CPM/μg DNA, or as per cent of vehicle control which incorporated about 1,000-1,500 cpm/μg DNA.

[2] = system: tissue transglutaminase (tTGASE) in HL-60 cells; assay: Tissue Transglutaminase Assay (tTGASE) in HL-60 Cells; type: cell-based; conditions: FIGS. 6-9
Protocol: Other assays in which the retinoid like activity of the compounds used in accordance with the invention are confirmed are the HL-60 transglutaminase induction and HL-60 differentiation assay, the procedures of which are described as follows.
HL-60 cells were grown as a suspension culture in T-162 cm^2 flasks in serum-free RPMI 1640 medium supplemented with insulin (5 μg/ml), transferrin (5 μg/ml), and selenium (3 nM). The cells (1×10^6 cells/well, in 6-well dishes) were treated with serial dilutions of test compounds in the above RPMI 1640 medium which was additionally supplemented with […] dibutyryl cyclic adenosine monophosphate, a component found to be necessary for efficient differentiation of the cells. Ethanol was used in the vehicle control cultures. After 1 days of incubation at 37° C. in a 7.5% CO2 incubator, the cells were collected in a set of tubes and pelleted by centrifugation. The cells were lyzed in a buffer containing 20 mM Tris-HCl, pH 7.5, 1 mM EDTA, and 0.5% Triton X-100. An aliquot of the cell lysate was assayed for tTGASE activity in a reaction mixture containing 20 mM Tris-HCl, pH 7.5, 5 mM CaCl2, 2 mg/ml dimethylcasein, 15 mM B-mercaptoethanol and 50 μCi/ml [2,3-^3H] putrescine dihydrochloride. The reaction was carried out for 60 minutes in a 37° C. shaking water bath. The reaction was stopped by an addition of 10% trichloroacetic acid containing 0.1% putrescein. An aliquot of the stopped reaction mixture was spotted on Whatman 3 MM filter discs. The filter discs, along with the control blank filter discs, were washed twice with 5% trichloroacetic acid containing 0.1% putrescein and twice with methanol. After drying under a heat lamp, the radioactivity in the filter discs was determined by scintillation counting. An aliquot of the cell lysates was also assayed for […] by the Bradford method (Bio-Rad). After subtracting the radioactivity from the control blank filter discs, the data were calculated and expressed as pmol/min/mg protein.
As is well understood in the art, induction of tranglutaminase activity in the just-described assay is an early marker of retinoid like activity.

female hairless mice = type: in vivo; conditions: animals died from a group of 5
Protocol: Specifically, tests to determine skin toxicity were performed on certain examplary compounds in accordance with the present invention, and on certain analogous compounds which lack the R3 substituent in accordance with Formula 1, 2 or 3. A “Two Week Acute Skin Toxicity Study of Multiple Topical Applications in Female Hairless Mice” is conducted as follows: a daily dose (expressed in nanomoles) of the “test compound” is applied to the skin on the back of hairless mice (usually a test group of 5 mice for a given compound). The daily dose of the test compound is applied for 5 consecutive days, followed by two days when the test compound is not administered, and is thereafter administered again for 4 more consecutive days. On the 14th day the test animals if still alive, are sacrificed to perform certain studies and tests. In the meanwhile certain tests and observations are made on a daily basis with respect to body weight and skin condition. Skin condition is graded as “flaking/scaling” and “abrasion” on a scale of 0 to +5 where the various numbers correspond to the following observations.
Results of these tests are summarized in Table 3, where daily dose is expressed in nanomoles, weight loss of the test animals is in percentages at the end of the 14 day test period, or at the time the test animal expired, and mortality is expressed with the number of animals which died from a group of 5.

In the case of C/C(=C\c1ccc(C(=O)O)cc1)c1ccc2c(c1)C(C)(C)CCC2(C)C [AGN 191183, reference compound], the IC50 [1] is reported as 3 ng/mL (≈ 8.61 nM), the “inhibition of 3H-thymidine incorporation (effectiveness in sebocyte assay)” value (human sebocyte cultures) is reported as “not effective” and the “induction of transglutaminase activity” value [2] is reported as “inactive”. The Death/Total (female hairless mice; daily dose 7.5 nanomoles topical) was 0/5, the Death/Total (female hairless mice; daily dose 25 nanomoles topical) was 0/5 and the Death/Total (female hairless mice; daily dose 75 nanomoles topical) was 5/5. For the same compound, the Death/Total (female hairless mice; daily dose 80 nanomoles topical) was 5/5.
